Data set [1] relates to Staphylococcus aureus. The experiment in a line: Antibacterial activity against methicillin-resistant Staphylococcus aureus Bio-090770 after 16 to 18 hrs by broth microdilution method. In kind it is functional. The following applies: time 16-18 hrs. Background: Broth dilution looks for growth in wells or tubes with falling amounts of substance.
Data set [2] has as its system Acinetobacter baumannii. Nature of the data set: Antibacterial activity against drug-resistant Acinetobacter baumannii Bio 53272 after 16 to 18 hrs by broth microdilution method. The class given is functional. The following applies: time 16-18 hrs.
In data set [3] the test system is Klebsiella pneumoniae. The experiment in a line: Antibacterial activity against Klebsiella pneumoniae CICC 21611 after 16 to 18 hrs by broth microdilution method. To be noted: time 16-18 hrs. In kind it is functional.
Data set [4] deals with Staphylococcus aureus. The experiment in a line: Antibacterial activity against methicillin-resistant Staphylococcus aureus ATCC 33591 after 16 to 18 hrs by broth microdilution method. The class given is functional. To be noted: time 16-18 hrs.
Data set [5] deals with Staphylococcus aureus. Nature of the data set: Antibacterial activity against methicillin-susceptible Staphylococcus aureus ATCC 29213 after 16 to 18 hrs by broth microdilution method. In kind it is functional. To be noted: time 16-18 hrs.
Data set [6] has as its system Staphylococcus aureus. Nature of the data set: Antibacterial activity against methicillin-susceptible Staphylococcus aureus ATCC 13709 after 16 to 18 hrs by broth microdilution method. In kind it is functional. To be noted: time 16-18 hrs.
Data set [7] relates to Staphylococcus aureus. Nature of the data set: Antibacterial activity against methicillin-susceptible Staphylococcus aureus ATCC 25923 after 16 to 18 hrs by broth microdilution method. In kind it is functional. To be noted: time 16-18 hrs.
The subject of data set [8] is Acinetobacter baumannii. The experiment in a line: Antibacterial activity against Acinetobacter baumannii Bio 34235 after 16 to 18 hrs by broth microdilution method. In kind it is functional. To be noted: time 16-18 hrs.
In data set [9] the test system is Staphylococcus epidermidis. The experiment in a line: Antibacterial activity against Staphylococcus epidermidis after 16 to 18 hrs by broth microdilution method. The class given is functional. To be noted: time 16-18 hrs.
Data set [10] has as its system Escherichia coli. Nature of the data set: Antibacterial activity against Escherichia coli ATCC 25922 after 16 to 18 hrs by broth microdilution method. The class given is functional. To be noted: time 16-18 hrs.
The test system of data set [11] is Staphylococcus aureus. Nature of the data set: Antibacterial activity against methicillin-resistant Staphylococcus aureus ATCC 43300 after 16 to 18 hrs by broth microdilution method. In kind it is functional. The following applies: time 16-18 hrs.
Data set [12] has as its system Klebsiella pneumoniae. Nature of the data set: Antibacterial activity against Klebsiella pneumoniae CICC 20093 after 16 to 18 hrs by broth microdilution method. In kind it is functional. The following applies: time 16-18 hrs.
Data set [13] concerns Acinetobacter baumannii. The experiment in a line: Antibacterial activity against Acinetobacter baumannii Bio 53272 after 16 to 18 hrs by broth microdilution method. The class given is functional. The following applies: time 16-18 hrs.
Data set [14] relates to Escherichia coli. The experiment in a line: Antibacterial activity against Escherichia coli ATCC 10661 after 16 to 18 hrs by broth microdilution method. The class given is functional. The following applies: time 16-18 hrs.
For data set [15], the system named is Acinetobacter baumannii. Nature of the data set: Antibacterial activity against Acinetobacter baumannii Bio 53250 after 16 to 18 hrs by broth microdilution method. In kind it is functional. The following applies: time 16-18 hrs.
Data set [16] deals with Acinetobacter baumannii. The experiment in a line: Antibacterial activity against Acinetobacter baumannii Bio 120982 after 16 to 18 hrs by broth microdilution method. The class given is functional. To be noted: time 16-18 hrs.
Data set [17] deals with Escherichia coli. The experiment in a line: Antibacterial activity against Escherichia coli ATCC 10668 after 16 to 18 hrs by broth microdilution method. The class given is functional. To be noted: time 16-18 hrs.
A short description of data set [18]: Cytotoxicity against human HEK293T cells assessed as cell viability at 3.125 to 100 uM incubated for 24 hrs by MTT assay. In kind it is toxicity, cell-based, HEK-293T. Background: Formazan colour is commonly taken as a measure of viable cells.
The test system of data set [19] is Acinetobacter baumannii. The experiment in a line: Antibacterial activity against Acinetobacter baumannii Bio 24253 after 16 to 18 hrs by broth microdilution method. In kind it is functional. To be noted: time 16-18 hrs.
Data set [20] relates to Escherichia coli. Nature of the data set: Antibacterial activity against Escherichia coli ATCC 10663 after 16 to 18 hrs by broth microdilution method. The class given is functional. The following applies: time 16-18 hrs.
Data set [21] is described as follows: Cytotoxicity against human HeLa cells assessed as cell viability at 3.125 to 100 uM incubated for 24 hrs by MTT assay. The class given is toxicity, cell-based.
The subject of data set [22] is Klebsiella pneumoniae. The experiment in a line: Antibacterial activity against Klebsiella pneumoniae CICC 21092 after 16 to 18 hrs by broth microdilution method. In kind it is functional. The following applies: time 16-18 hrs.
The subject of data set [23] is Acinetobacter baumannii. Nature of the data set: Antibacterial activity against Acinetobacter baumannii Bio 69680 after 16 to 18 hrs by broth microdilution method. To be noted: time 16-18 hrs. In kind it is functional.

≈ marks a conversion by molar mass, not a printed value.

For orientation: MIC means the lowest concentration that inhibits growth of the organism. The term IC50 denotes the concentration needed to halve the response being measured.

With `CCCC[C@H](CN(O)C=O)C(=O)N1CCC[C@H]1c1nnc(-c2ccc(Br)cc2)s1`, the MIC in data set [1] was 1 µg/mL (≈ 2.08 µM); in data set [2] it was 16 µg/mL (≈ 33.2 µM); in data set [3], more than 16 µg/mL; in [4], 0.5 µg/mL (≈ 1.04 µM); in data set [5], 1 µg/mL (≈ 2.08 µM); in [6], 0.5 µg/mL (≈ 1.04 µM). Further, the minimum inhibitory concentration (MIC) in data set [7] is 0.5 µg/mL (≈ 1.04 µM); in data set [8], more than 16 µg/mL; in data set [9], 1 µg/mL (≈ 2.08 µM); in [10], more than 16 µg/mL; in data set [11], 0.5 µg/mL (≈ 1.04 µM).

With `CCCC[C@H](CN(O)C=O)C(=O)N1CCC[C@H]1c1nnc(CCC)s1`, the minimum inhibitory concentration (MIC) in [1] is 4 µg/mL (≈ 10.9 µM); in data set [2] it was more than 16 µg/mL; in data set [3], more than 16 µg/mL; in data set [4] it was 1 µg/mL (≈ 2.71 µM); in data set [5], 2 µg/mL (≈ 5.43 µM); in data set [6], 2 µg/mL (≈ 5.43 µM). Besides, the MIC in [7] was 2 µg/mL (≈ 5.43 µM); in [8] it was more than 16 µg/mL; in [9], 2 µg/mL (≈ 5.43 µM); in [10], more than 16 µg/mL; in data set [11], 1 µg/mL (≈ 2.71 µM).

In the case of `CCCC[C@H](CN(O)C=O)C(=O)N1CCC[C@H]1c1nnc(-c2ccc(C)cc2)s1`, the minimum inhibitory concentration (MIC) in [1] was 1 µg/mL (≈ 2.4 µM); in [2] it was 8 µg/mL (≈ 19.2 µM); in [3], more than 16 µg/mL; in data set [4] it was 0.5 µg/mL (≈ 1.2 µM); in data set [5], 1 µg/mL (≈ 2.4 µM); in data set [6], 1 µg/mL (≈ 2.4 µM). For the same compound, the MIC was 1 µg/mL (≈ 2.4 µM) in data set [7]; more than 16 µg/mL in [8]; 2 µg/mL (≈ 4.8 µM) in [9]; 16 µg/mL (≈ 38.4 µM) in [10]; 1 µg/mL (≈ 2.4 µM) in data set [11].

Take `CCCC[C@H](CN(O)C=O)C(=O)N1CCC[C@H]1c1nnc(-c2ccc([N+](=O)[O-])cc2C(F)(F)F)s1`: the MIC in data set [1] was 1 µg/mL (≈ 1.94 µM); in [2], more than 16 µg/mL; in [3], more than 16 µg/mL; in data set [4], 0.5 µg/mL (≈ 0.97 µM); in data set [5], 1 µg/mL (≈ 1.94 µM); in [6], 0.5 µg/mL (≈ 0.97 µM). Also, the minimal inhibitory concentration (MIC) in data set [7] is 2 µg/mL (≈ 3.88 µM); in data set [8], more than 16 µg/mL; in [9], 4 µg/mL (≈ 7.76 µM); in [10], more than 16 µg/mL; in data set [11], 0.5 µg/mL (≈ 0.97 µM).

On to `CCCC[C@H](CN(O)C=O)C(=O)N1CCC[C@H]1c1nnc(-c2ccns2)s1`, for which the minimal inhibitory concentration (MIC) in data set [1] amounted to 2 µg/mL (≈ 4.88 µM); in data set [2], 16 µg/mL (≈ 39.1 µM); in data set [3] it was 16 µg/mL (≈ 39.1 µM); in data set [4], 0.25 µg/mL (≈ 0.61 µM); in data set [5], 1 µg/mL (≈ 2.44 µM); in [6] it was 1 µg/mL (≈ 2.44 µM). In addition, the MIC in data set [7] is 1 µg/mL (≈ 2.44 µM); in data set [8], 32 µg/mL (≈ 78.1 µM); in data set [9] it was 0.5 µg/mL (≈ 1.22 µM); in [10] it was 64 µg/mL (≈ 156 µM); in data set [11] it was 0.5 µg/mL (≈ 1.22 µM).

As to `CC(=O)NC[C@H]1CN(c2ccc(N3CCOCC3)c(F)c2)C(=O)O1` [LINEZOLID], the MIC is 1 µg/mL (≈ 2.96 µM) in data set [1]; 128 µg/mL (≈ 379 µM) in data set [12]; 128 µg/mL (≈ 379 µM) in [13]; 16 µg/mL (≈ 47.4 µM) in data set [14]; more than 16 µg/mL in data set [2]; 128 µg/mL (≈ 379 µM) in [15]. Besides, the MIC is 128 µg/mL (≈ 379 µM) in [16]; 128 µg/mL (≈ 379 µM) in data set [3]; 1 µg/mL (≈ 2.96 µM) in data set [4]; 1 µg/mL (≈ 2.96 µM) in data set [5]; 128 µg/mL (≈ 379 µM) in [17]; 1 µg/mL (≈ 2.96 µM) in [6]. In addition, the MIC was 128 µg/mL (≈ 379 µM) in [19]; 1 µg/mL (≈ 2.96 µM) in data set [7]; 64 µg/mL (≈ 190 µM) in [20]; 128 µg/mL (≈ 379 µM) in data set [8]; 8 µg/mL (≈ 23.7 µM) in data set [9]; more than 128 µg/mL in data set [10]. Besides, the MIC is more than 128 µg/mL in data set [22], 1 µg/mL (≈ 2.96 µM) in data set [11] and 128 µg/mL (≈ 379 µM) in data set [23]. The IC50 at 24 h in [18] and in data set [21] was more than 100 µM throughout.

As to `CCCC[C@H](CN(O)C=O)C(=O)N1CCC[C@H]1c1nnc(-c2ccc(C(C)(C)C)cc2)s1`, the MIC in data set [1] was 4 µg/mL (≈ 8.72 µM); in data set [2], more than 16 µg/mL; in [3], more than 16 µg/mL; in [4], 1 µg/mL (≈ 2.18 µM); in data set [5] it was 2 µg/mL (≈ 4.36 µM); in data set [6], 2 µg/mL (≈ 4.36 µM). Also, the minimum inhibitory concentration (MIC) in data set [7] was 4 µg/mL (≈ 8.72 µM); in [8], more than 16 µg/mL; in data set [9], 4 µg/mL (≈ 8.72 µM); in data set [10] it was more than 16 µg/mL; in data set [11], 1 µg/mL (≈ 2.18 µM).

On to `CCCC[C@H](CN(O)C=O)C(=O)N1CCC[C@H]1c1nnc(-c2ccncc2)s1`, for which the MIC in [1] came to 1 µg/mL (≈ 2.48 µM); in data set [2] it was 32 µg/mL (≈ 79.3 µM); in data set [3], 32 µg/mL (≈ 79.3 µM); in data set [4], 0.25 µg/mL (≈ 0.62 µM); in [5], 0.5 µg/mL (≈ 1.24 µM); in data set [6], 0.5 µg/mL (≈ 1.24 µM). Moreover, the MIC came to 1 µg/mL (≈ 2.48 µM) in [7]; 64 µg/mL (≈ 159 µM) in data set [8]; 0.5 µg/mL (≈ 1.24 µM) in data set [9]; 128 µg/mL (≈ 317 µM) in data set [10]; 0.5 µg/mL (≈ 1.24 µM) in data set [11].

These data come from ChEMBL document CHEMBL6121016, “Design, Synthesis, and Biological Evaluation of 1,3,4-Thiadiazole Derivatives as Novel Potent Peptide Deformylase Inhibitors for Combating Drug-Resistant Gram-Positive and -Negative Bacteria” (J Med Chem, 2025).
